Assay results taken from ChEMBL document CHEMBL3244413, “A phenazine analogue of actinomycin D” (1979).
pEC50: −log10 of the molar value. *1 amine or outer side, *2 acyl side, *3 side chain or, on linkers, in order; H or OH if unused. Where a SMILES comes first, the peptide text is derived from it. Bridges are numbered along the chain shown (N, C = ends). Roman numbers before positions name the chains, in order. [ ]: non-standard residue; d: D form. Actinocin(1to9) = Cc1c2oc3c(C)ccc(C(=O)[*:2])c3nc-2c(C(=O)[*:1])c(N)c1=O; NMeV = CN[C@H](C(=O)O)C(C)C; Sar = CNCC(=O)O

How the values were obtained:
L1210 [1] = assay: Inhibition of RNA synthesis in mouse L1210 cells by [3H]-uridine incorporation assay; assay type: functional; settings: read-out: ED50 (the source's name)
L1210 [2] = assay: Inhibition of DNA synthesis in mouse L1210 cells by [3H]-thymidine incorporation assay; assay type: functional; settings: read-out: ED50 (the source's name)
Calf thymus DNA = assay: Binding affinity to calf thymus DNA at 5.2 x 10^-6 M by CD spectra analysis; assay type: nucleic-acid assay; settings: Bos taurus

pEC50 (L1210 [1]) | pEC50 (L1210 [2]) | ΔTm (Calf thymus DNA) [°C] | SMILES
6.15 | 4.20 | 9.9 | Cc1c2oc3c(C)ccc(C(=O)N[C@@H]4C(=O)N[C@H](C(C)C)C(=O)N5CCC[C@H]5C(=O)N(C)CC(=O)N(C)[C@@H](C(C)C)C(=O)O[C@@H]4C)c3nc-2c(C(=O)N[C@@H]2C(=O)N[C@H](C(C)C)C(=O)N3CCC[C@H]3C(=O)N(C)CC(=O)N(C)[C@@H](C(C)C)C(=O)O[C@@H]2C)cc1=O
7.82 | 6.22 | 7.1 | Cc1c2oc3c(C)ccc(C(=O)N[C@@H]4C(=O)N[C@H](C(C)C)C(=O)N5CCC[C@H]5C(=O)N(C)CC(=O)N(C)[C@@H](C(C)C)C(=O)O[C@@H]4C)c3nc-2c(C(=O)N[C@@H]2C(=O)N[C@H](C(C)C)C(=O)N3CCC[C@H]3C(=O)N(C)CC(=O)N(C)[C@@H](C(C)C)C(=O)O[C@@H]2C)c(N)c1=O [DACTINOMYCIN] (I: T[dV]P[Sar][NMeV] / II: T[dV]P[Sar][NMeV]; ester I:1-I:C, II:1-II:C; linker I:N-II:N via Actinocin(1to9))
6.64 | 5.04 | 3.4 | Cc1ccc(C(=O)N[C@@H]2C(=O)N[C@H](C(C)C)C(=O)N3CCC[C@H]3C(=O)N(C)CC(=O)N(C)[C@@H](C(C)C)C(=O)O[C@@H]2C)c2nc3c(C(=O)N[C@@H]4C(=O)N[C@H](C(C)C)C(=O)N5CCC[C@H]5C(=O)N(C)CC(=O)N(C)[C@@H](C(C)C)C(=O)O[C@@H]4C)cccc3nc12
